Experimental data from patent US20250296938A1, “Compounds that Interact with the Ras Superfamily for the Treatment of Cancers, Inflammatory Diseases, Rasopathies, and Fibrotic Disease” (SHY Therapeutics, LLC, priority 2018, published 2025).
Where two headings read alike, the source gives them in different places.

Experiments:
Test in all cases: Ras GTP binding domain inhibition assay (Cy3-GTP/Cy5-GTP competition)
KRas Q61H mutant = test system: KRas Q61H mutant; design: species or system human; conditions: 20 μM
Method: (§1) The following method was developed as specific assay for the following proteins: KRas wild type, KRas Q61H mutant, KRas G12C mutant, KRas G12D mutant, HRas wild type, Rac-1, and Rho-A.
(§2) • 25 mM Tris-HCl, pH 7.4 • 27 mM KCl • 137 mM NaCl • 1 mM MgCl2 • 1 mM DTT
(§3) • 50 mM Tris-HCl, pH 7.0 • 1 mM MgCl2 • 1 mM DTT
(§4) The small GTPases proteins: KRas wild type. KRas Q61H mutant, KRas G12C mutant, KRas G12D mutants, HRas wild type, Rac-1, and Rho-A were expressed as His-tagged proteins. In addition, the Guanosine nucleotide Exchange Factor (GEF) Sos protein (residues 556-1049) was expressed as a His-tagged protein. In cells, the guanine nucleotide exchange factor Sos protein promotes activation of Ras proteins by stimulating an exchange of GDP for GTP. The inclusion of Sos to the Ras GTP binding domain inhibition assay may be considered as an alternative representation of physiological cellular conditions for evaluating the inhibitory activity of some of the tested small molecules.
(§5) For the assay, all purified small GTPases proteins were diluted in Buffer-I or Buffer-II to a final concentration of 10-30 μg/mL. 200 μL of each diluted protein was added to a nickel-coated 96-well plate and incubated overnight at 4° C. Then the protein solution was discarded and 200 μL of Buffer-I or Buffer-II was added to each well in the presence of 1% DMSO. Compounds to be tested were added to the protein-coated wells at final concentration of 20 μM, and incubated for 3 hours at room temperature with and without […] of Sos added to the final hour of the incubation. When performing IC50 measurements a serial dilution of all tested concentrations was added. Then Cy3-GTP or Cy5-GTP was added to each well to a final concentration of 100 nM. The labeled GTP was incubated for 45 minutes at room temperature. Following GTP incubation, wells were washed 3× in Buffer-I or Buffer-II and 200 μL of Buffer-I or Buffer-II was added to each well. Following washes, the amount of bound labeled-GTP was measured using a SpectraMax M3 (Molecular Devices).

KRas wild type = test system: KRas wild type; design: species or system human; conditions: 20 μM; for KRas wild type % inh.: without SOS (Table 7A); for KRas wild type: % inh.: without SOS
Method: as §1, §2, §3, §4, §5

KRas G12C mutant = test system: KRas G12C mutant; design: species or system human; conditions: 20 μM
Method: as §1, §2, §3, §4, §5

KRas G12D mutant = biological target: T1, KRas G12D mutant (Homo sapiens, UniProt P01116, G12D); conditions: 20 μM
T1 construct: fused on or other part: His tag, used for capture on nickel-coated plates
Method: as §1, §2, §3, §4, §5

[1] = with SOS (Table 7A), read-out: KRas G12D mutant + SOS: % inh.
[2] = without SOS (Table 7A), read-out: KRas G12D mutant: % inh.
[3] = with SOS, read-out: KRas G-12D mutant + SOS: % inh.
[4] = without SOS, read-out: KRas G12D mutant: % inh.

Compound | KRas Q61H mutant + SOS: % inh. (KRas Q61H mutant; with SOS (Table 7A)) | KRas Q61H mutant: % inh. (KRas Q61H mutant; without SOS (Table 7A)) | KRas wild type + SOS: % inh. (KRas wild type; with SOS (Table 7A)) | KRas wild type % inh. (KRas wild type) | KRas G12C mutant + SOS: % inh. (KRas G12C mutant; with SOS (Table 7A)) | KRas G12C mutant: % inh. (KRas G12C mutant; without SOS (Table 7A)) | inhibition at 20 µM (KRas G12D mutant; [1]) | inhibition at 20 µM (KRas G12D mutant; [2]) | KRas Q61H mutant + SOS: % inh. (KRas Q61H mutant; with SOS) | KRas Q61H mutant: % inh. (KRas Q61H mutant; without SOS) | KRas wild type + SOS: % inh. (KRas wild type; with SOS) | KRas wild type: % inh. (KRas wild type) | KRas G12C mutant + SOS: % inh. (KRas G12C mutant; with SOS) | KRas G12C mutant: % inh. (KRas G12C mutant; without SOS) | inhibition at 20 µM (KRas G12D mutant; [3]) | inhibition at 20 µM (KRas G12D mutant; [4])
CO[C@H]1C[C@@H](Nc2nc(-c3ccccn3)nc3sccc23)C1 [drawing 902] | C (51-75% inhibition) | D (76-100% inhibition) | C (51-75% inhibition) | C (51-75% inhibition) | C (51-75% inhibition) | C (51-75% inhibition) | 51 to 75% | 51 to 75% | – | – | – | – | – | – | – | –
CO[C@H]1CC[C@@H](Nc2nc(-c3nccn3C)nc3sc(C(=O)N4CCOCC4)c(-c4ccccc4)c23)C1 [drawing 927] | D (76-100% inhibition) | D (76-100% inhibition) | C (51-75% inhibition) | D (76-100% inhibition) | C (51-75% inhibition) | C (51-75% inhibition) | 51 to 75% | 76 to 100% | – | – | – | – | – | – | – | –
COc1c(O)nc(-c2ccccn2)nc1Oc1ccccc1 [drawing 813] | – | – | – | – | – | – | – | – | C (51-75% inhibition) | D (76-100% inhibition) | B (26-50% inhibition) | D (76-100% inhibition) | C (51-75% inhibition) | C (51-75% inhibition) | 26 to 50% | 26 to 50%
COc1ncccc1-c1sc2nc(-c3nccn3C)nc(N3CCC(OC)C3)c2c1-c1ccccc1.Cl (stereo not shown) | – | – | – | – | – | – | – | – | C (51-75% inhibition) | C (51-75% inhibition) | C (51-75% inhibition) | C (51-75% inhibition) | C (51-75% inhibition) | C (51-75% inhibition) | 51 to 75% | 51 to 75%
COC1CCN(c2nc(-c3nccn3C)nc3sc(-c4ccccc4CO)c(-c4ccccc4)c23)C1.Cl (stereo not shown) | – | – | – | – | – | – | – | – | D (76-100% inhibition) | B (26-50% inhibition) | D (76-100% inhibition) | B (26-50% inhibition) | D (76-100% inhibition) | A (1-25% inhibition) | 51 to 75% | 51 to 75%
COc1c(O)nc(-c2ccccn2)nc1Oc1ccc(C(=O)N(C)C)cc1 [drawing 879] | B (26-50% inhibition) | B (26-50% inhibition) | A (1-25% inhibition) | B (26-50% inhibition) | A (1-25% inhibition) | B (26-50% inhibition) | 26 to 50% | 51 to 75% | – | – | – | – | – | – | – | –
COc1c(O)nc(-c2ccccn2)nc1Oc1ccc2ncccc2c1 [drawing 804] | – | – | – | – | – | – | – | – | C (51-75% inhibition) | C (51-75% inhibition) | B (26-50% inhibition) | C (51-75% inhibition) | C (51-75% inhibition) | C (51-75% inhibition) | 26 to 50% | 51 to 75%
COCC(C)Nc1nc(-c2nccn2C)nc2sc(-c3cccc(OC)c3)c(-c3cscn3)c12 (stereo not shown) [drawing 855] | – | – | – | – | – | – | – | – | D (76-100% inhibition) | C (51-75% inhibition) | D (76-100% inhibition) | B (26-50% inhibition) | D (76-100% inhibition) | B (26-50% inhibition) | 51 to 75% | 51 to 75%
COCCn1ccnc1-c1nc(O)c2scc(-c3ccc(OCC(C)C)nc3)c2n1 [drawing 898] | C (51-75% inhibition) | D (76-100% inhibition) | C (51-75% inhibition) | C (51-75% inhibition) | C (51-75% inhibition) | C (51-75% inhibition) | 51 to 75% | 51 to 75% | – | – | – | – | – | – | – | –
COCCn1cc(Nc2nc(-c3ccccn3)nc(OC)c2OC)cn1 [drawing 793] | – | – | – | – | – | – | – | – | A (1-25% inhibition) | 0 (0% inhibition) | A (1-25% inhibition) | 0 (0% inhibition) | A (1-25% inhibition) | A (1-25% inhibition) | 1 to 25% | 1 to 25%
CCOc1cccc(Nc2nc(-c3ccccn3)nc(O)c2OC)c1 [drawing 882] | C (51-75% inhibition) | C (51-75% inhibition) | B (26-50% inhibition) | C (51-75% inhibition) | C (51-75% inhibition) | C (51-75% inhibition) | 26 to 50% | 51 to 75% | – | – | – | – | – | – | – | –
CO[C@H]1C[C@@H](Nc2nc(-c3nccn3C)nc3sc(C(=O)NC(C)C)c(-c4ccccc4)c23)C1 [drawing 920] | D (76-100% inhibition) | D (76-100% inhibition) | D (76-100% inhibition) | C (51-75% inhibition) | D (76-100% inhibition) | D (76-100% inhibition) | 51 to 75% | 51 to 75% | – | – | – | – | – | – | – | –
COc1ccc(-c2sc3nc(-c4nccn4C)nc(N4CCC(OC)C4)c3c2-c2ccccc2)cn1.Cl (stereo not shown) | – | – | – | – | – | – | – | – | D (76-100% inhibition) | B (26-50% inhibition) | D (76-100% inhibition) | A (1-25% inhibition) | D (76-100% inhibition) | 0 (0% inhibition) | 51 to 75% | 26 to 50%
COC1CCC(Nc2nc(-c3nccn3C)nc3sc(-c4cccc5[nH]ncc45)c(C)c23)C1 (stereo not shown) [drawing 895] | D (76-100% inhibition) | B (26-50% inhibition) | D (76-100% inhibition) | B (26-50% inhibition) | D (76-100% inhibition) | B (26-50% inhibition) | 51 to 75% | 26 to 50% | – | – | – | – | – | – | – | –
